Measurements: patent US12060347B2 (BRISTOL-MYERS SQUIBB COMPANY, priority 2016, dated 2024)

Biological target: T1, human PAR4 (Homo sapiens, UniProt Q96RI0)
T1 construct: expressed in transfected cells; host or cells: HEK293 PAR4 Clone 1.2A (BMS Arctic ID 383940)
T1 sequence (Q96RI0 18-385): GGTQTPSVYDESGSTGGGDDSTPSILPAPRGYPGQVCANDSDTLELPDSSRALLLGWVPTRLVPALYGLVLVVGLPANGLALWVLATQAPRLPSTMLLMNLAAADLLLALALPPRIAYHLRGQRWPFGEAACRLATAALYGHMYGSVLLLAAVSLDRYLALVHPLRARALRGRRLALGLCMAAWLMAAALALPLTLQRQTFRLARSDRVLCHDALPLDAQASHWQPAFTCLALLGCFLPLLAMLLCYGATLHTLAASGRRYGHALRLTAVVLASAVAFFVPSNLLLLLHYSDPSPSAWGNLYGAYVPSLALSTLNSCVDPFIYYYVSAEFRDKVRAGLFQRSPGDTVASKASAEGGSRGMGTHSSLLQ
Assay: PAR4 FLIPR assay: antagonism of agonist-peptide-induced calcium mobilization in PAR4-expressing HEK293 cells
Assay type: cell-based
Conditions: H-Ala-Phe(4-F)-[…]NH2-induced intracellular calcium mobilization, 11-point curves

SMILES	IC50 [nM]
COc1cnc2c(-c3nc4cc(F)c(OC[C@@H](C)OC(=O)Nc5ccc(C(=O)N6CCOCC6)nc5)cc4s3)cc(C)cc2n1 [Example 435, (R)-1-((5-fluoro-2-(2-methoxy-7-methylquinoxalin-5-yl)benzo[d]thiazol-6-yl)oxy)propan-2-yl (6-(morpholine-4-carbonyl)pyridin-3-yl)carbamate]	0.9
CNC(=O)c1ccc(NC(=O)O[C@H](C)[C@H](C)Oc2cc3sc(-c4cc(C)cc5nc(OC)cnc45)nc3cc2F)cn1 [Example 436, (2R,3S)-3-((5-fluoro-2-(2-methoxy-7-methylquinoxalin-5-yl)benzo[d]thiazol-6-yl)oxy)butan-2-yl (6-(methylcarbamoyl)pyridin-3-yl)carbamate]	1.5
COc1cnc2c(-c3nc4cc(F)c(O[C@@H](C)[C@@H](C)OC(=O)Nc5cnc(C(=O)N6CCOCC6)nc5)cc4s3)cc(C)cc2n1 [Example 437, (2R,3S)-3-((5-fluoro-2-(2-methoxy-7-methylquinoxalin-5-yl)benzo[d]thiazol-6-yl)oxy)butan-2-yl (2-(morpholine-4-carbonyl)pyrimidin-5-yl)carbamate]	4.9
COc1cnc2c(-c3nc4cc(F)c(O[C@@H](C)[C@@H](C)OC(=O)Nc5ccc(C(=O)N(C)C)nc5)cc4s3)cc(C)cc2n1 [Example 438, (2R,3S)-3-((5-fluoro-2-(2-methoxy-7-methylquinoxalin-5-yl)benzo[d]thiazol-6-yl)oxy)butan-2-yl (6-(dimethylcarbamoyl)pyridin-3-yl)carbamate]	1.9
COc1cnc2c(-c3nc4cc(F)c(O[C@@H](C)[C@@H](C)OC(=O)Nc5ccc(C(=O)NC[C@@H](C)O)nc5)cc4s3)cc(C)cc2n1 [Example 439, (2R,3S)-3-((5-fluoro-2-(2-methoxy-7-methylquinoxalin-5-yl)benzo[d]thiazol-6-yl)oxy)butan-2-yl (6-(((R)-2-hydroxypropyl)carbamoyl)pyridin-3-yl)carbamate]	0.9
CNC(=O)c1ncc(NC(=O)O[C@H](C)[C@H](C)Oc2cc3sc(-c4cc(C)cc5nc(OC)cnc45)nc3cc2F)cn1 [Example 440, (2R,3S)-3-((5-fluoro-2-(2-methoxy-7-methylquinoxalin-5-yl)benzo[d]thiazol-6-yl)oxy)butan-2-yl (2-(methylcarbamoyl)pyrimidin-5-yl)carbamate]	0.8
COc1cnc2c(-c3nc4cc(F)c(O[C@@H](C)[C@@H](C)OC(=O)Nc5ccc(C(=O)NC[C@H](C)O)nc5)cc4s3)cc(C)cc2n1 [Example 441, (2R,3S)-3-((5-fluoro-2-(2-methoxy-7-methylquinoxalin-5-yl)benzo[d]thiazol-6-yl)oxy)butan-2-yl (6-(((S)-2-hydroxypropyl)carbamoyl)pyridin-3-yl)carbamate]	0.9
COc1cnc2c(-c3nc4cc(F)c(OC[C@@H](C)OC(=O)Nc5ccnc(C(=O)NCCO)c5)cc4s3)cc(C)cc2n1 [Example 442, (R)-1-((5-fluoro-2-(2-methoxy-7-methylquinoxalin-5-yl)benzo[d]thiazol-6-yl)oxy)propan-2-yl (2-((2-hydroxyethyl)carbamoyl)pyridin-4-yl)carbamate]	0.8
CNC(=O)c1cc(NC(=O)O[C@H](C)COc2cc3sc(-c4cc(C)cc5nc(OC)cnc45)nc3cc2F)ccn1 [Example 443, (R)-1-((5-fluoro-2-(2-methoxy-7-methylquinoxalin-5-yl)benzo[d]thiazol-6-yl)oxy)propan-2-yl (2-(methylcarbamoyl)pyridin-4-yl)carbamate]	0.6
COc1cnc2c(-c3nc4cc(F)c(OC[C@@H](C)OC(=O)Nc5ccnc(C(N)=O)c5)cc4s3)cc(C)cc2n1 [Example 444, (R)-1-((5-fluoro-2-(2-methoxy-7-methylquinoxalin-5-yl)benzo[d]thiazol-6-yl)oxy)propan-2-yl (2-carbamoylpyridin-4-yl)carbamate]	0.8
COc1cnc2c(-c3nc4cc(F)c(OC[C@@H](C)OC(=O)Nc5ccc(C(=O)NCCO)nc5)cc4s3)cc(C)cc2n1 [Example 445, (R)-1-((5-fluoro-2-(2-methoxy-7-methylquinoxalin-5-yl)benzo[d]thiazol-6-yl)oxy)propan-2-yl (6-((2-hydroxyethyl)carbamoyl)pyridin-3-yl)carbamate]	3.2
COc1cnc2c(-c3nc4cc(F)c(O[C@@H](C)[C@@H](C)OC(=O)Nc5ccc(C(=O)NCCC(C)(C)O)nc5)cc4s3)cc(C)cc2n1 [Example 446, (2R,3S)-3-((5-fluoro-2-(2-methoxy-7-methylquinoxalin-5-yl)benzo[d]thiazol-6-yl)oxy)butan-2-yl (6-((3-hydroxy-3-methylbutyl)carbamoyl)pyridin-3-yl)carbamate]	2.3
COc1cnc2c(-c3nc4cc(F)c(OC[C@@H](C)OC(=O)Nc5ccnc(C(=O)N(C)C)c5)cc4s3)cc(C)cc2n1 [Example 447, (R)-1-((5-fluoro-2-(2-methoxy-7-methylquinoxalin-5-yl)benzo[d]thiazol-6-yl)oxy)propan-2-yl (2-(dimethylcarbamoyl)pyridin-4-yl)carbamate]	21
COc1cnc2c(-c3nc4cc(F)c(OC[C@@H](C)OC(=O)Nc5ccc(C(=O)NCC(C)(C)O)nc5)cc4s3)cc(C)cc2n1 [Example 448, (R)-1-((5-fluoro-2-(2-methoxy-7-methylquinoxalin-5-yl)benzo[d]thiazol-6-yl)oxy)propan-2-yl (6-((2-hydroxy-2-methylpropyl)carbamoyl)pyridin-3-yl)carbamate]	2.1
COc1cnc2c(-c3nc4cc(F)c(OC[C@@H](C)OC(=O)Nc5ccc(C(=O)NC[C@@H](C)O)nc5)cc4s3)cc(C)cc2n1 [Example 449, (R)-1-((5-fluoro-2-(2-methoxy-7-methylquinoxalin-5-yl)benzo[d]thiazol-6-yl)oxy)propan-2-yl (6-(((R)-2-hydroxypropyl)carbamoyl)pyridin-3-yl)carbamate]	0.3
COc1cnc2c(-c3nc4cc(F)c(OC[C@@H](C)OC(=O)Nc5ccc(C(=O)NC[C@H](C)O)nc5)cc4s3)cc(C)cc2n1 [Example 450, (R)-1-((5-fluoro-2-(2-methoxy-7-methylquinoxalin-5-yl)benzo[d]thiazol-6-yl)oxy)propan-2-yl (6-(((S)-2-hydroxypropyl)carbamoyl)pyridin-3-yl)carbamate]	0.5
COc1cnc2c(-c3nc4cc(F)c(O[C@@H](C)[C@@H](C)OC(=O)Nc5ccnc(C(=O)NCCO)c5)cc4s3)cc(C)cc2n1 [Example 451, (2R,3S)-3-((5-fluoro-2-(2-methoxy-7-methylquinoxalin-5-yl)benzo[d]thiazol-6-yl)oxy)butan-2-yl (2-((2-hydroxyethyl)carbamoyl)pyridin-4-yl)carbamate]	0.7
COc1cnc2c(-c3nc4cc(F)c(O[C@@H](C)[C@@H](C)OC(=O)Nc5ccnc(C(=O)NC[C@@H](C)O)c5)cc4s3)cc(C)cc2n1 [Example 452, (2R,3S)-3-((5-fluoro-2-(2-methoxy-7-methylquinoxalin-5-yl)benzo[d]thiazol-6-yl)oxy)butan-2-yl (2-(((R)-2-hydroxypropyl)carbamoyl)pyridin-4-yl)carbamate]	0.4
COc1cnc2c(-c3nc4cc(F)c(O[C@@H](C)[C@@H](C)OC(=O)Nc5ccnc(C(N)=O)c5)cc4s3)cc(C)cc2n1 [Example 453, (2R,3S)-3-((5-fluoro-2-(2-methoxy-7-methylquinoxalin-5-yl)benzo[d]thiazol-6-yl)oxy)butan-2-yl (2-carbamoylpyridin-4-yl)carbamate]	0.6
COc1cnc2c(-c3nc4cc(F)c(O[C@@H](C)[C@@H](C)OC(=O)Nc5cnc(C(N)=O)nc5)cc4s3)cc(C)cc2n1 [Example 454, (2R,3S)-3-((5-fluoro-2-(2-methoxy-7-methylquinoxalin-5-yl)benzo[d]thiazol-6-yl)oxy)butan-2-yl (2-carbamoylpyrimidin-5-yl)carbamate]	1.3
COc1cnc2c(-c3nc4cc(F)c(O[C@@H](C)[C@@H](C)OC(=O)Nc5cnc(C(=O)NCCO)nc5)cc4s3)cc(C)cc2n1 [Example 455, (2R,3S)-3-((5-fluoro-2-(2-methoxy-7-methylquinoxalin-5-yl)benzo[d]thiazol-6-yl)oxy)butan-2-yl (2-((2-hydroxyethyl)carbamoyl)pyrimidin-5-yl)carbamate]	0.8
COc1cnc2c(-c3nc4cc(F)c(O[C@@H](C)[C@@H](C)OC(=O)Nc5cnc(C(=O)NCC(C)(C)O)nc5)cc4s3)cc(C)cc2n1 [Example 457, (2R,3S)-3-((5-fluoro-2-(2-methoxy-7-methylquinoxalin-5-yl)benzo[d]thiazol-6-yl)oxy)butan-2-yl (2-((2-hydroxy-2-methylpropyl)carbamoyl)pyrimidin-5-yl)carbamate]	0.4
COc1cnc2c(-c3nc4cc(F)c(O[C@@H](C)[C@@H](C)OC(=O)Nc5cnc(C(=O)NCCC(C)(C)O)nc5)cc4s3)cc(C)cc2n1 [Example 458, (2R,3S)-3-((5-fluoro-2-(2-methoxy-7-methylquinoxalin-5-yl)benzo[d]thiazol-6-yl)oxy)butan-2-yl (2-((3-hydroxy-3-methylbutyl)carbamoyl)pyrimidin-5-yl)carbamate]	0.5
COc1cnc2c(-c3nc4cc(F)c(O[C@@H](C)[C@@H](C)OC(=O)Nc5ccnc(C(=O)NCCC(C)(C)O)c5)cc4s3)cc(C)cc2n1 [Example 459, (2R,3S)-3-((5-fluoro-2-(2-methoxy-7-methylquinoxalin-5-yl)benzo[d]thiazol-6-yl)oxy)butan-2-yl (2-((3-hydroxy-3-methylbutyl)carbamoyl)pyridin-4-yl)carbamate]	0.9
